PubChem BioAssay (NCI)
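GI50 marks 50% less growth. Definition used: TGI = concentration required for complete inhibition of growth.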

Assays:
Experiment in all cases: DTP human tumour cell line panel, 384-well format
A549 NSCLC = system: A549 NSCLC
HCT-116 colon = system: HCT-116 colon
NCI-H322M lung = system: NCI-H322M lung
UACC-62 melanoma = system: UACC-62 melanoma
BT-549 breast = system: BT-549 breast
M14 melanoma = system: M14 melanoma
NCI/ADR-RES ovarian = system: NCI/ADR-RES ovarian
SK-MEL-28 melanoma = system: SK-MEL-28 melanoma
NCI-H460 NSCLC = system: NCI-H460 NSCLC
HT29 colon = system: HT29 colon
HOP-92 NSCLC = system: HOP-92 NSCLC
MOLT-4 leukemia = system: MOLT-4 leukemia
RPMI-8226 leukemia = system: RPMI-8226 leukemia
UACC-257 melanoma = system: UACC-257 melanoma
SF-539 CNS = system: SF-539 CNS
RXF 393 renal = system: RXF 393 renal
UO-31 renal = system: UO-31 renal
SW-620 colon = system: SW-620 colon
HOP-62 NSCLC = system: HOP-62 NSCLC
HS 578T breast = system: HS 578T breast
A498 renal = system: A498 renal
DU-145 prostate = system: DU-145 prostate
TK-10 renal = system: TK-10 renal
T-47D breast = system: T-47D breast
SK-MEL-5 melanoma = system: SK-MEL-5 melanoma
SR leukemia = system: SR leukemia
CAKI-1 renal = system: CAKI-1 renal
MCF7 breast = system: MCF7 breast
OVCAR-4 ovarian = system: OVCAR-4 ovarian
OVCAR-8 ovarian = system: OVCAR-8 ovarian
EKVX NSCLC = system: EKVX NSCLC
OVCAR-5 ovarian = system: OVCAR-5 ovarian
SN12C renal = system: SN12C renal
ACHN renal = system: ACHN renal
HCC-2998 colon = system: HCC-2998 colon
COLO 205 colon = system: COLO 205 colon
HCT-15 colon = system: HCT-15 colon
MALME-3M melanoma = system: MALME-3M melanoma
SF-295 CNS = system: SF-295 CNS
IGROV1 ovarian = system: IGROV1 ovarian
MDA-MB-231 breast = system: MDA-MB-231 breast
SK-OV-3 ovarian = system: SK-OV-3 ovarian
U251 glioblastoma = system: U251 glioblastoma
LOX IMVI melanoma = system: LOX IMVI melanoma
PC-3 prostate = system: PC-3 prostate
NCI-H23 lung = system: NCI-H23 lung
SF-268 CNS = system: SF-268 CNS
KM12 colon = system: KM12 colon
MDA-MB-435 melanoma = system: MDA-MB-435 melanoma
SNB-75 CNS = system: SNB-75 CNS
786-0 renal = system: 786-0 renal
MDA-MB-468 breast = system: MDA-MB-468 breast
NCI-H522 lung = system: NCI-H522 lung
HL-60(TB) leukemia = system: HL-60(TB) leukemia
NCI-H226 lung = system: NCI-H226 lung
SNB-19 CNS = system: SNB-19 CNS
OVCAR-3 ovarian = system: OVCAR-3 ovarian

Structure (SMILES): C=C1C[C@@H]2[C@H](CC[C@]3(C)C(=O)CC[C@@H]23)[C@@]2(C)C=CC(=O)C=C12
- GI50 (A549 NSCLC): 30.1 µM
- TGI (A549 NSCLC): > 100 µM
- GI50 (HCT-116 colon): 27.5 µM
- TGI (HCT-116 colon): > 100 µM
- GI50 (NCI-H322M lung): 25.1 µM
- TGI (NCI-H322M lung): 74.6 µM
- GI50 (UACC-62 melanoma): 21.9 µM
- TGI (UACC-62 melanoma): > 100 µM
- GI50 (BT-549 breast): 14.9 µM
- TGI (BT-549 breast): 31.1 µM
- GI50 (M14 melanoma): 29.3 µM
- TGI (M14 melanoma): > 100 µM
- GI50 (NCI/ADR-RES ovarian): 17.9 µM
- TGI (NCI/ADR-RES ovarian): 35.3 µM
- GI50 (SK-MEL-28 melanoma): > 100 µM
- TGI (SK-MEL-28 melanoma): > 100 µM
- GI50 (NCI-H460 NSCLC): 21.1 µM
- TGI (NCI-H460 NSCLC): 40.6 µM
- GI50 (HT29 colon): 23 µM
- TGI (HT29 colon): 99.1 µM
- GI50 (HOP-92 NSCLC): > 100 µM
- TGI (HOP-92 NSCLC): > 100 µM
- GI50 (MOLT-4 leukemia): 13.7 µM
- TGI (MOLT-4 leukemia): 27 µM
- GI50 (RPMI-8226 leukemia): 17.8 µM
- TGI (RPMI-8226 leukemia): 32.2 µM
- GI50 (UACC-257 melanoma): 17.3 µM
- TGI (UACC-257 melanoma): 53.1 µM
- GI50 (SF-539 CNS): 19.6 µM
- TGI (SF-539 CNS): 38.9 µM
- GI50 (RXF 393 renal): 5.67 µM
- TGI (RXF 393 renal): 17.4 µM
- GI50 (UO-31 renal): 21.1 µM
- TGI (UO-31 renal): 39.5 µM
- GI50 (SW-620 colon): 33.9 µM
- TGI (SW-620 colon): > 100 µM
- GI50 (HOP-62 NSCLC): 23.1 µM
- TGI (HOP-62 NSCLC): 56.2 µM
- GI50 (HS 578T breast): 12.3 µM
- TGI (HS 578T breast): 27.2 µM
- GI50 (A498 renal): 23.3 µM
- TGI (A498 renal): 47.8 µM
- GI50 (DU-145 prostate): 35.2 µM
- TGI (DU-145 prostate): > 100 µM
- GI50 (TK-10 renal): > 100 µM
- TGI (TK-10 renal): > 100 µM
- GI50 (T-47D breast): 27.6 µM
- TGI (T-47D breast): 98.6 µM
- GI50 (SK-MEL-5 melanoma): 12.9 µM
- TGI (SK-MEL-5 melanoma): 29.1 µM
- GI50 (SR leukemia): 18 µM
- TGI (SR leukemia): 32.1 µM
- GI50 (CAKI-1 renal): 27 µM
- TGI (CAKI-1 renal): 70.7 µM
- GI50 (MCF7 breast): 18.6 µM
- TGI (MCF7 breast): 82.4 µM
- GI50 (OVCAR-4 ovarian): 20.9 µM
- TGI (OVCAR-4 ovarian): 40.2 µM
- GI50 (OVCAR-8 ovarian): 20.3 µM
- TGI (OVCAR-8 ovarian): 47.2 µM
- GI50 (EKVX NSCLC): 28.4 µM
- TGI (EKVX NSCLC): 75.7 µM
- GI50 (OVCAR-5 ovarian): > 100 µM
- TGI (OVCAR-5 ovarian): > 100 µM
- GI50 (SN12C renal): 32.4 µM
- TGI (SN12C renal): 98.2 µM
- GI50 (ACHN renal): 22.3 µM
- TGI (ACHN renal): 42.6 µM
- GI50 (HCC-2998 colon): 15.8 µM
- TGI (HCC-2998 colon): 30 µM
- GI50 (COLO 205 colon): 20.7 µM
- TGI (COLO 205 colon): 37.4 µM
- GI50 (HCT-15 colon): 19 µM
- TGI (HCT-15 colon): > 100 µM
- GI50 (MALME-3M melanoma): 12.2 µM
- TGI (MALME-3M melanoma): 25.9 µM
- GI50 (SF-295 CNS): 57.1 µM
- TGI (SF-295 CNS): > 100 µM
- GI50 (IGROV1 ovarian): 32.6 µM
- TGI (IGROV1 ovarian): > 100 µM
- GI50 (MDA-MB-231 breast): 28.8 µM
- TGI (MDA-MB-231 breast): 85.1 µM
- GI50 (SK-OV-3 ovarian): 82.2 µM
- TGI (SK-OV-3 ovarian): > 100 µM
- GI50 (U251 glioblastoma): 21.4 µM
- TGI (U251 glioblastoma): 44.4 µM
- GI50 (LOX IMVI melanoma): 12.5 µM
- TGI (LOX IMVI melanoma): 27.1 µM
- GI50 (PC-3 prostate): 30.3 µM
- TGI (PC-3 prostate): > 100 µM
- GI50 (NCI-H23 lung): 17.9 µM
- TGI (NCI-H23 lung): 36.2 µM
- GI50 (SF-268 CNS): 27.4 µM
- TGI (SF-268 CNS): 74.9 µM
- GI50 (KM12 colon): 28 µM
- TGI (KM12 colon): 94.9 µM
- GI50 (MDA-MB-435 melanoma): 82.9 µM
- TGI (MDA-MB-435 melanoma): > 100 µM
- GI50 (SNB-75 CNS): 25.9 µM
- TGI (SNB-75 CNS): 74 µM
- GI50 (786-0 renal): 19.8 µM
- TGI (786-0 renal): 45.8 µM
- GI50 (MDA-MB-468 breast): 6.15 µM
- TGI (MDA-MB-468 breast): 25.8 µM
- GI50 (NCI-H522 lung): 12.2 µM
- TGI (NCI-H522 lung): 24.8 µM
- GI50 (HL-60(TB) leukemia): 12.8 µM
- TGI (HL-60(TB) leukemia): 25.6 µM
- GI50 (NCI-H226 lung): 20.5 µM
- TGI (NCI-H226 lung): 39.2 µM
- GI50 (SNB-19 CNS): 46.5 µM
- TGI (SNB-19 CNS): > 100 µM
- GI50 (OVCAR-3 ovarian): 14.8 µM
- TGI (OVCAR-3 ovarian): 35.9 µM
